Measurements: ChEMBL document CHEMBL1201862, “PubChem BioAssay data set” (2004)
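Cultured in 96-well plates, cells were exposed to test compound for 48 hours across five concentrations. GI50: concentration for 50% inhibition of growth.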 Calls of active or inactive are those of the source. Cut-off read from the data, not from the text of the source: active = GI50 up to about 1.1 µM and inactive = higher.

Tests used:
Test in all cases: inhibition of tumour cell growth, NCI panel, 48 h
[1] = tested on: U-251
[2] = tested on: DMS-114
[3] = tested on: IGROV-1
[4] = tested on: SN12C
[5] = tested on: OVCAR-3
[6] = tested on: HL-60
[7] = tested on: HCT-15
[8] = tested on: KM12
[9] = tested on: NCI-H226
[10] = tested on: MOLT-4
[11] = tested on: SF-539
[12] = tested on: NCI-H460
[13] = tested on: SK-MEL-28
[14] = tested on: HOP-62
[15] = tested on: OVCAR-5
[16] = tested on: ACHN
[17] = tested on: 786-0
[18] = tested on: MDA-MB-231
[19] = tested on: MDA-N
[20] = tested on: NCI/ADR-RES

SMILES	GI50 [1]	GI50 [2]	GI50 [3]	GI50 [4]	GI50 [5]	GI50 [6]	GI50 [7] [µM]	GI50 [8]	GI50 [9]	GI50 [10]	GI50 [11]	GI50 [12]	GI50 [13]	GI50 [14]	GI50 [15]	GI50 [16]	GI50 [17]	GI50 [18]	GI50 [19]	GI50 [20]
O=C(CSc1nnc(Cc2ccccc2)o1)Nc1cccc([N+](=O)[O-])c1	> 100 µM (inactive)	> 100 µM (inactive)	> 100 µM (inactive)	> 100 µM (inactive)	> 100 µM (inactive)	> 100 µM (inactive)	> 100	> 100 µM (inactive)	> 100 µM (inactive)	> 100 µM (inactive)	> 100 µM (inactive)	> 100 µM (inactive)	> 100 µM (inactive)	> 100 µM (inactive)	> 100 µM (inactive)	> 100 µM (inactive)	> 100 µM (inactive)			
COc1cc(OC)c(C(=O)c2cccs2)cc1N	> 100 µM (inactive)	> 100 µM (inactive)	> 100 µM (inactive)	> 100 µM (inactive)	> 100 µM (inactive)		> 100	> 100 µM (inactive)		> 100 µM (inactive)	> 100 µM (inactive)	> 100 µM (inactive)	> 100 µM (inactive)	> 100 µM (inactive)	> 100 µM (inactive)	> 100 µM (inactive)	> 100 µM (inactive)			
COc1cc(NC(C)=O)c2[nH]c3c(C)cc(NC(C)=O)c(C)c3c2c1	> 100 µM (inactive)	> 100 µM (inactive)	> 100 µM (inactive)	> 100 µM (inactive)	> 100 µM (inactive)	> 100 µM (inactive)	> 100	> 100 µM (inactive)	> 100 µM (inactive)	> 100 µM (inactive)	> 100 µM (inactive)	> 100 µM (inactive)	> 100 µM (inactive)			> 100 µM (inactive)	> 100 µM (inactive)			
Cc1c(C)n(-c2ccccc2)c2nc(S(C)(=O)=O)nc(S(C)(=O)=O)c12	5.9 µM (inactive)		4.72 µM (inactive)	17.8 µM (inactive)	1.6 µM (inactive)	1.58 µM (inactive)	1.61	13.7 µM (inactive)	21.4 µM (inactive)	1.48 µM (inactive)	14 µM (inactive)	16.9 µM (inactive)	2.53 µM (inactive)	16.8 µM (inactive)	1.82 µM (inactive)	1.57 µM (inactive)	1.28 µM (inactive)	5.73 µM (inactive)	1.64 µM (inactive)	23.1 µM (inactive)
O=C1NC(=O)C(CC(C(=O)C(=O)Nc2ccccc2Cl)C(=O)c2ccc3ccccc3c2)C(=O)N1 (centres undefined)	> 100 µM (inactive)		> 100 µM (inactive)	> 100 µM (inactive)	> 100 µM (inactive)	> 100 µM (inactive)	> 100	> 100 µM (inactive)	> 100 µM (inactive)	> 100 µM (inactive)	> 100 µM (inactive)	> 100 µM (inactive)	> 100 µM (inactive)	> 100 µM (inactive)	> 100 µM (inactive)	> 100 µM (inactive)	> 100 µM (inactive)	> 100 µM (inactive)	> 100 µM (inactive)	> 100 µM (inactive)
O=c1c2cc(I)ccc2nc(S)n1Cc1ccccc1	18.4 µM (inactive)		4.07 µM (inactive)	10.6 µM (inactive)	6.65 µM (inactive)	6.84 µM (inactive)	32.1	9.08 µM (inactive)	15.5 µM (inactive)	> 100 µM (inactive)	15.5 µM (inactive)	6.93 µM (inactive)	43.2 µM (inactive)	13.3 µM (inactive)	43.1 µM (inactive)	4.49 µM (inactive)	11.5 µM (inactive)	13.1 µM (inactive)	9.2 µM (inactive)	18.5 µM (inactive)
C/C(CC(=O)Nc1ccc(Cl)cc1)=N\NC(=O)C[n+]1ccccc1	> 100 µM (inactive)	> 100 µM (inactive)	> 100 µM (inactive)		> 100 µM (inactive)	> 100 µM (inactive)		> 100 µM (inactive)	> 100 µM (inactive)	> 100 µM (inactive)	> 100 µM (inactive)	> 100 µM (inactive)	> 100 µM (inactive)	> 100 µM (inactive)	> 100 µM (inactive)	> 100 µM (inactive)	> 100 µM (inactive)			
COC(=O)C(CC(C)C)NC(=O)NC12CC3CC(CC(F)(C3)C1)C2 (centres undefined)	> 100 µM (inactive)	> 100 µM (inactive)	> 100 µM (inactive)		> 100 µM (inactive)	> 100 µM (inactive)		> 100 µM (inactive)		> 100 µM (inactive)	> 100 µM (inactive)	> 100 µM (inactive)	> 100 µM (inactive)	> 100 µM (inactive)	> 100 µM (inactive)	> 100 µM (inactive)	> 100 µM (inactive)			
O=C(O)C1(Cc2ccc3c(c2)CCC3)Cc2ccccc2C1	65.8 µM (inactive)		> 100 µM (inactive)	> 100 µM (inactive)	71.3 µM (inactive)	35.2 µM (inactive)	54.2	46.3 µM (inactive)	91 µM (inactive)	71.8 µM (inactive)	> 100 µM (inactive)	52.1 µM (inactive)	60.8 µM (inactive)	84.5 µM (inactive)	> 100 µM (inactive)	53.7 µM (inactive)	> 100 µM (inactive)	> 100 µM (inactive)	> 100 µM (inactive)	78.2 µM (inactive)
CC(=O)OC1CC2OC(Cc3ccccc32)O1 (centres undefined)	52.1 µM (inactive)	> 100 µM (inactive)	> 100 µM (inactive)	64.1 µM (inactive)	> 100 µM (inactive)	> 100 µM (inactive)		> 100 µM (inactive)	36.8 µM (inactive)	48.9 µM (inactive)	29.9 µM (inactive)	> 100 µM (inactive)	> 100 µM (inactive)	> 100 µM (inactive)		> 100 µM (inactive)	> 100 µM (inactive)			
CC(C)OC(=O)C1Cc2c([nH]c3ccccc23)C(c2ccccc2)N1 (centres undefined)	> 100 µM (inactive)	52.4 µM (inactive)	> 100 µM (inactive)	> 100 µM (inactive)	> 100 µM (inactive)	33 µM (inactive)	75.3	97.1 µM (inactive)	> 100 µM (inactive)	42.5 µM (inactive)	> 100 µM (inactive)	> 100 µM (inactive)	42.5 µM (inactive)	23.4 µM (inactive)	> 100 µM (inactive)	93.8 µM (inactive)	27.7 µM (inactive)			
CC(C)(C)C(=O)/C=C(\OB(F)F)C(C)(C)C	> 100 µM (inactive)		> 100 µM (inactive)	> 100 µM (inactive)	> 100 µM (inactive)	> 100 µM (inactive)	> 100	> 100 µM (inactive)	> 100 µM (inactive)	> 100 µM (inactive)	> 100 µM (inactive)	> 100 µM (inactive)	> 100 µM (inactive)	> 100 µM (inactive)	> 100 µM (inactive)	> 100 µM (inactive)	> 100 µM (inactive)	> 100 µM (inactive)	> 100 µM (inactive)	> 100 µM (inactive)
Cc1ccccc1NC(=O)C(=O)CC(=O)c1ccc([N+](=O)[O-])cc1	> 100 µM (inactive)	> 100 µM (inactive)	> 100 µM (inactive)	> 100 µM (inactive)	> 100 µM (inactive)		> 100	> 100 µM (inactive)	> 100 µM (inactive)		> 100 µM (inactive)	> 100 µM (inactive)	> 100 µM (inactive)	> 100 µM (inactive)	> 100 µM (inactive)	> 100 µM (inactive)	> 100 µM (inactive)			
C[N+](C)(C)CC(=O)N/N=C(\CCC(=O)NCCc1ccccc1)CC(=O)c1ccccc1	> 100 µM (inactive)	> 100 µM (inactive)	> 100 µM (inactive)	> 100 µM (inactive)	> 100 µM (inactive)	> 100 µM (inactive)	> 100	> 100 µM (inactive)	> 100 µM (inactive)	> 100 µM (inactive)	> 100 µM (inactive)	> 100 µM (inactive)		> 100 µM (inactive)	> 100 µM (inactive)	> 100 µM (inactive)	> 100 µM (inactive)			
CCOC12OC3=C(CC1CC1=C(CCC1=O)O2)C(=O)CC3 (centres undefined)	> 100 µM (inactive)	> 100 µM (inactive)	> 100 µM (inactive)	> 100 µM (inactive)	> 100 µM (inactive)	> 100 µM (inactive)	> 100	> 100 µM (inactive)	> 100 µM (inactive)	> 100 µM (inactive)	> 100 µM (inactive)	> 100 µM (inactive)		> 100 µM (inactive)	> 100 µM (inactive)		> 100 µM (inactive)			
CCOC(=O)CC1=CSC2=NCCN12	> 100 µM (inactive)	> 100 µM (inactive)	> 100 µM (inactive)	> 100 µM (inactive)	> 100 µM (inactive)	> 100 µM (inactive)	> 100	> 100 µM (inactive)	> 100 µM (inactive)		> 100 µM (inactive)	> 100 µM (inactive)	> 100 µM (inactive)	> 100 µM (inactive)	> 100 µM (inactive)	> 100 µM (inactive)	> 100 µM (inactive)			
C/C1=C\CC/C(C)=C/C=C(/C(C)C)CC/C(C(=O)O)=C/CC1 [CROTOCEMBRANEIC ACID]	35.1 µM (inactive)		61.1 µM (inactive)	45.3 µM (inactive)	22.9 µM (inactive)	33 µM (inactive)	37.8	42.9 µM (inactive)	33 µM (inactive)	28.3 µM (inactive)	37.9 µM (inactive)	34.8 µM (inactive)	> 100 µM (inactive)	29.6 µM (inactive)	> 100 µM (inactive)	34.5 µM (inactive)	55.7 µM (inactive)	56.5 µM (inactive)	59 µM (inactive)	44.8 µM (inactive)
